biological target: T1, Recombinant human Syk (GST-Syk kinase fusion protein) (Homo sapiens, UniProt P43405); assay: Syk Kinase Test (Kinase Glo Luminescence Kinase test); assay type: biochemical; settings: 1 μM test substance; negative control (no kinase) = 100% inhibition, positive control (no test substance) = 0% inhibition
T1 construct: made in house
Procedure: The catalytic activity of the GST-Syk kinase fusion protein was determined using the Kinase Glo® Luminescence Kinase test of Messrs Promega. In this homogeneous test the amount of ATP remaining after the kinase reaction has been carried out is quantified by a luciferin-luciferase reaction using luminescence. The luminescence signal obtained correlates with the amount of ATP still present and thus correlates inversely with the activity of the protein kinase.
The test substances were dissolved in 100% DMSO at a concentration of 10 mM and diluted in DMSO to a concentration of 1 mM. […] GST-Syk was diluted to 6.0 nM in the test buffer and 10 μl of this dilution were used in the kinase test (final concentration of Syk=4 nM in a total volume of 15 μl).
Positive controls are the reaction mixtures that contain no test substance; negative controls are reaction mixtures that contain no kinase.
After 60 minutes, 10 μl Kinase-Glo® solution (Promega, Cat. # V6712) (heated to ambient temperature) are added to each well and incubation is continued for a further 15 minutes at ambient temperature.
The output file of the “MicroBeta TRILUX” is a text file that contains the well number and measurements obtained. […] Then from this the % inherent value for the measurement of each substance concentration was calculated using an “MS-Excel-VB macro”. […] The IC50 values were calculated from the % inhibition values using “GraphPadPrism” software (Version 5) (GraphPad Software Inc.).

Row | SMILES | % INHB SYK at 1 μM
1 | OCCCCOc1nc(-c2ccc(N3CCOCC3)cc2)cc2ncccc12 [Example 4, 4-[7-(4-morpholinophenyl)-[1,6]naphthyridin-5-yloxy]-butan-1-ol] | 94.4%
2 | COc1cc(-c2cc3ncccc3c(NC[C@@H]3CCNC3)n2)ccc1N1CCOCC1 [Example 10] | 98.6%
3 | O[C@H]1CC[C@@H](Nc2nc(-c3ccc(N4CCOCC4)cc3)cc3ncccc23)CC1 [Example 62, 4-[7-(4-morpholin-4-yl-phenyl)-[1,6]naphthyridin-5-ylamino]-cyclohexanol] | 76.8%
4 | c1cnc2cc(-c3ccc(N4CCOCC4)cc3)nc(NCC3CNCCO3)c2c1 (stereo not shown) [Example 63] | 85.4%
5 | Cc1cc(-c2cc3ncccc3c(OC[C@H]3CCCNC3)n2)ccc1N1CCOCC1 [Example 66, (S)-4-(2-methyl-4-(5-(piperidine-3-ylmethoxy)-[1,6]naphthyridin-7-yl)phenyl)morpholine] | 102.8%
6 | OCC#Cc1nc(-c2ccc(N3CCOCC3)cc2)cc2ncccc12 [Example 82, 3-[7-(4-morpholin-4-yl-phenyl)-[1,6]naphthyridin-5-yl]-prop-2-yn-1-ol] | 87.1%
7 | CCNC(=O)NC1CN(c2nc(-c3ccc(N4CCN(C)CC4)cc3)cc3ncccc23)C1 [Example 92, 1-ethyl-3-(1-{7-[4-(4-methyl-piperazin-1-yl)-phenyl]-[1,6]naphthyridin-5-yl}-azetidin-3-yl)-urea] | 77.3%
8 | CCNC(=O)N1CCCC1CNc1nc(-c2ccc(N3CCN(C)CC3)cc2)cc2ncccc12 (stereo not shown) [Example 93, 2-({7-[4-(4-methyl-piperazin-1-yl)-phenyl]-[1,6]naphthyridin-5-ylamino}-methyl)-pyrrolidin-1-carboxylic acid ethylamide] | 91.5%
9 | NC(=O)N1CCN(c2nc(-c3ccc(N4CCOCC4)cc3)cc3ncccc23)CC1 [Example 98, 4-[7-(4-morpholin-4-yl-phenyl)-[1,6]naphthyridin-5-yl]-piperazine-1-carboxylic acid amide] | 86.8%
10 | CC(=O)N[C@H]1CC[C@@H](Nc2nc(-c3ccc(N4CCOCC4)cc3)cc3ncccc23)CC1 [Example 113, N-{4-[7-(4-morpholin-4-yl-phenyl)-[1,6]naphthyridin-5-ylamino]-cyclohexyl}-acetamide] | 94.7%

Continued, values first:

Row | % INHB SYK at 1 μM | SMILES
11 | 82.0% | c1cnc2cc(-c3ccc(N4CCOCC4)cc3)nc(Nc3ccc4cn[nH]c4c3)c2c1 [Example 1, 5-[(1H-indazol-6-yl)amino]-7-(4-morpholinophenyl)-[1,6]naphthyridine]
12 | 72.6% | NC(=O)c1cccnc1Nc1nc(-c2ccc(N3CCOCC3)cc2)cc2ncccc12 [Example 2, 2-[7-(4-morpholin-4-yl-phenyl)-[1,6]naphthyridin-5-ylamino]-nicotinamide]
13 | 101.8% | CNc1nc(-c2ccc(N3CCOCC3)cc2)cc2ncccc12 [Example 3]
14 | 86.7% | CN[C@H]1CC[C@@H](Nc2nc(-c3ccc(N4CCOCC4)cc3)cc3ncccc23)CC1 [Example 9, N-methyl-N′-[7-(4-morpholin-4-yl-phenyl)-[1,6]naphthyridin-5-yl]-cyclohexane-1,4-diamine]
15 | 82.9% | CCOc1nc(-c2ccc(N3CCOCC3)cc2)cc2ncccc12 [Example 79, 5-Ethoxy-7-(4-morpholin-4-yl-phenyl)-[1,6]naphthyridine]
16 | 95.3% | NC(=O)C1CCN(c2nc(-c3ccc(N4CCOCC4)cc3)cc3ncccc23)C1 (stereo not shown) [Example 107, 1-[7-(4-morpholin-4-yl-phenyl)-[1,6]naphthyridin-5-yl]-pyrrolidine-3-carboxylic acid amide]
17 | 55.2% | c1ccc(-c2nc(-c3ccc(N4CCOCC4)cc3)cc3ncccc23)cc1 [Example 132, (4-(5-phenyl-1,6-naphthyridin-7-yl)phenyl)morpholine]
18 | 43.3% | CCc1nc(-c2ccc(N3CCOCC3)cc2)cc2ncccc12 [Example 140, (4-(5-ethyl-[1,6]naphthyridin-7-yl)phenyl)morpholine]
19 | 70.3% | C#Cc1nc(-c2ccc(N3CCOCC3)cc2)cc2ncccc12 [Example 142, (4-(5-ethynyl-[1,6]naphthyridin-7-yl)phenyl)morpholine]

Source: patent publication US20110201608A1 (BOEHRINGER INGELHEIM INTERNATIONAL GMBH, priority 2008, published 2011)
